# How the values were obtained:
# Format in all cases: in vivo
# [1] = system: Erysiphe graminis f. sp. tritici; assay: Test A: preventive spray on wheat seedlings, wheat powdery mildew, disease rating; details: wheat seedlings sprayed to run-off, inoculated the following day with Erysiphe graminis f. sp. tritici, rated after 7 days at 20° C.; test concentration not given
# Outline: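 Wheat seedlings sprayed to run-off with compound suspension (200 ppm ≈ 500 g/ha) in acetone/water with surfactant, inoculated next day with Erysiphe graminis f. sp. tritici spores. After 7 days at 20 °C, disease rated 0–100 as % control relative to untreated plants.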
# Puccinia recondita = assay: Test B: preventive spray on wheat seedlings, wheat leaf rust, disease rating; details: wheat seedlings sprayed to run-off, inoculated the following day with Puccinia recondita, 24 h saturated atmosphere then 6 days at 20° C.; test concentration not given
# Outline: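 Compound suspended in acetone/water (50/50) with 250 ppm Trem 014 surfactant, sprayed to run-off on wheat seedlings (200 ppm ≈ 500 g/ha); P. recondita spores inoculated next day. Plants held 24 h saturated at 20° C, then 6 days at 20° C; disease rated as % control relative to untreated (100 = full control).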
# Septoria nodorum = assay: Test C: preventive spray on wheat seedlings, Septoria glume blotch, disease rating; details: wheat seedlings sprayed to run-off, inoculated the following day with Septoria nodorum, 48 h saturated atmosphere then 9 days at 20° C.; test concentration not given
# Outline: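 Wheat seedlings were sprayed to run-off with compound suspensions in acetone/water containing 250 ppm Trem 014 (200 ppm equals 500 g/ha), then inoculated with Septoria nodorum spores next day. Plants were held 48 h saturated at 20° C., then 9 days at 20° C. Disease control was rated 0–100 relative to controls.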
Compound,"Test A disease control rating (100 = 100% disease control, 0 = no disease control relative to the controls) [1] [%]","Test B disease control rating (100 = 100% disease control, 0 = no disease control relative to the controls) (Puccinia recondita) [%]","Test C disease control rating (100 = 100% disease control, 0 = no disease control relative to the controls) (Septoria nodorum) [%]"
CCN(C(=S)Nc1cc(Cl)c(OCCCC(C)C)cc1Cl)C(C)C [compound 127],0,99,100
COC(=O)C(=Nc1cc(C)c(OCCC[Si](C)(C)C)cc1C)N(C)C [compound 128],98,95,73
CCN(C)C(=Nc1cc(Cl)c(OCCC[Si](C)(C)C)cc1C)C(=O)OC [compound 129],100,100,67
COC(=O)C(=Nc1cc(Cl)c(OCCC[Si](C)(C)C)cc1C)N(C)C [compound 130],100,97,0
CCN(C)C(=Nc1cc(C)c(OCCC[Si](C)(C)C)cc1C)C(=O)OC [compound 131],67,100,96
Cc1cc(OCCCC(C)C)c(C)cc1N=CN(C)C [compound 132],98,100,97
Cc1cc(NC(=S)N(C)C)c(C)c(Cl)c1OCCC[Si](C)(C)C [compound 133],99,85,53
CCN(C)C(=S)Nc1cc(C)c(OCCC[Si](C)(C)C)c(Cl)c1C [compound 134],100,100,81
Cc1cc(NC(=S)N(C)C)c(C)c(Cl)c1OCCCC(C)C [compound 136],95,91,84
CCN(C)C(=S)Nc1cc(C)c(OCCCC(C)C)c(Cl)c1C [compound 137],100,100,84
Cc1cc(NC(=S)N(C)C)c(C)c(Cl)c1OCCCC(C)(C)C [compound 138],98,74,60
CCN(C)C(=S)Nc1cc(C)c(OCCCC(C)(C)C)c(Cl)c1C [compound 139],100,100,99
CCN(C)C=Nc1cc(C)c(OCCC[Si](C)(C)C)c(Cl)c1C [compound 140],100,100,100
CCCCC(CCC)Sc1cc(C)c(N=CN(C)C)cc1C (stereo not drawn) [compound 141],0,99,100
CCCCC(CCC)Sc1cc(C)c(N=C(C)N(C)C)cc1C (stereo not drawn) [compound 142],0,0,53
CCCCC(CCCC)Sc1cc(C)c(N=C(C)N(C)C)cc1C [compound 143],0,0,80

Compound,"Test A disease control rating (100 = 100% disease control, 0 = no disease control relative to the controls) [1] [%]","Test B disease control rating (100 = 100% disease control, 0 = no disease control relative to the controls) (Puccinia recondita) [%]","Test C disease control rating (100 = 100% disease control, 0 = no disease control relative to the controls) (Septoria nodorum) [%]"
Cc1cc(NCCC(C)CC(C)(C)C)c(C)cc1N=CN(C)C (stereo not drawn) [compound 147],0,0,53
CCCC(CCC(C)C)Nc1cc(C)c(N=CN(C)C)cc1C (stereo not drawn) [compound 148],0,0,47
CCCCC(CCCC)Nc1cc(C)c(N=CN(C)C)cc1C [compound 150],0,0,47
Cc1cc(NC(CCC(C)C)CCC(C)C)c(C)cc1N=CN(C)C [compound 151],0,0,60
Cc1cc(NCCCC(C)C)c(C)cc1N=CN(C)C [compound 154],0,0,47
CCCCC(CCCC)Sc1cc(C)c(N=CN(C)C)cc1C [compound 155],0,23,95
Cc1cc(SCCCC(C)C)c(C)cc1N=CN(C)C [compound 156],93,100,100
CCCC(CCC)Sc1cc(C)c(N=CN(C)C)cc1C [compound 157],0,96,99
Cc1cc(SC(CCC(C)C)CCC(C)C)c(C)cc1N=CN(C)C [compound 159],94,100,47
CCCCC(CCC)Sc1cc(C)c(N=CN(C)C)cc1C (stereo not drawn) [compound 160],0,55,0
C=C(C)CC(CC)Sc1cc(C)c(N=CN(C)C)cc1C (stereo not drawn) [compound 161],72,100,53
CCN(CC)C(=S)Nc1cc(C)c(OCCC[Si](C)(C)C)cc1C [compound 163],32,100,73
CCN(C)C(=S)Nc1cc(C)c(OCCC[Si](C)(C)C)cc1C [compound 164],100,100,100
Cc1cc(OCCOC(C)(C)C)c(C)cc1NC(=S)N(C)C [compound 165],0,28,0
Cc1cc(OCCC[Si](C)(C)C)c(C)cc1NC(=S)N(C)C [compound 167],99,99,100
Cc1cc(OCCC[Si](C)(C)C)c(Cl)cc1NC(=S)N(C)C [compound 168],99,100,100

# From patent publication US20050182025A1, “Amidinylphenyl compounds and their use as fungicides” (priority 2002, published 2005)
